How the values were obtained:
Sf9 α1,2-mannosidase = molecular target: T1, Sf9 α1,2-mannosidase (Spodoptera frugiperda, UniProt O18498); test: α1,2-mannosidase activity assay, release of [3H]mannose from [3H]Man9GlcNAc by lysates of recombinant baculovirus-infected Sf9 cells; type: biochemical; conditions: cell lysates at 48 hours postinfection (FIG. 15B); for α-mannosidase activity in recombinant baculovirus-infected cells, inhibition by dMNJ: 500 μM dMNJ
T1 construct: This screening procedure identified a full-length α1,2-mannosidase cDNA clone which contains an ORF; made in house; host or cells: Sf9 cells infected with recombinant baculovirus (pVL1393 transfer plasmid, polyhedrin promoter, BacPAK6 DNA); Triton X-100 cell lysate, not purified
T1 sequence (O18498 1-670): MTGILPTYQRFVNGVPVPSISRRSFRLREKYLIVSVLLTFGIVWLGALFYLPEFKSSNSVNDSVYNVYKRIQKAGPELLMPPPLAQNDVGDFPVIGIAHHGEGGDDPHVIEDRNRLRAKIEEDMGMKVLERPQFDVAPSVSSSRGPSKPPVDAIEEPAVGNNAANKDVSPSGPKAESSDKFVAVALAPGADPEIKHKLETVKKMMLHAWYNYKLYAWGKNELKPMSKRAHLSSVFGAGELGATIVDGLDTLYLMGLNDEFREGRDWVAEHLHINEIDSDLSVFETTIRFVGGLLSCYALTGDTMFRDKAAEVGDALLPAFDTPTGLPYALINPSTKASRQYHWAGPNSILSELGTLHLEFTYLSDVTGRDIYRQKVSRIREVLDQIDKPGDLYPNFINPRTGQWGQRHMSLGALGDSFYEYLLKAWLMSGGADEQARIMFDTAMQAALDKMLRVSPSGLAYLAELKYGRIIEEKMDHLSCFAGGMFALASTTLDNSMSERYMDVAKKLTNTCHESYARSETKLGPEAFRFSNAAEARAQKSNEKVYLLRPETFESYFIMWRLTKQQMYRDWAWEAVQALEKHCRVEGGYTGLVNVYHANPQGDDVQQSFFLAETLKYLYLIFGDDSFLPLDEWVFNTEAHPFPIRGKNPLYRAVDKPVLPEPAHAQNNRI
Procedure: Sf9 cell lysates were used for α1,2-mannosidase activity assays with [3H]Man9GlcNAc as described previously (Herscovics and Jelinek-Kelly, 1987) with some modifications. The cells were seeded into 25 cm tissue culture flasks (Corning Glass Works, Corning, N.Y.) at a density of 3 million cells per flask and infected at a multiplicity of infection of 10 plaque forming units per cell with either a recombinant baculovirus encoding the Sf9 α1,2-mannosidase cDNA under the control of the polyhedrin promoter, or wild type baculovirus as a control. The cells were harvested by centrifugation at selected times after infection, washed with 100 mM Na^+MES (pH 6.0), and lysed using 1 ml per 30,000 cells of the same buffer containing 0.5% Triton X-100 with or without 80 mM EDTA.
[…] of the lysates were used in each reaction of the α1,2-mannosidase activity assays. Cell lysates for negative control reactions were boiled for 3 min prior to being added to the reactions. All reactions were carried out in a total volume of […] containing 75 mM Na^+MES (pH 6.0), 0.0625% Triton X-100, and 6000 cpm of [^3H]MangGlcNAc. In addition, some reactions contained CaCl2, MgCl2, EDTA, or dMNJ. The reactions were incubated at 37° C. for 2.5 hours, boiled for 2 min, and 250 ml of a 5 mM solution of CaCl2, MgCl2, and MnCl2, and 175 ml of a 2.25 mg/ml solution of concanavalin A (Boehringer-Mannheim, Indianapolis, Ind.) in 3.8 M NaCl were added to each reaction. The solutions were vortexed gently and incubated at room temperature for two minutes, then 1 ml of 25% PEG-8000 was added and the solutions were vortexed and incubated for another 5 min at room temperature. The solutions were then centrifuged for 2 min at 10,000×g, 1 ml of the supernatant was added to 4 ml of a scintillation cocktail (Ultima Gold™; Packard Instrument Company, Meriden, Conn.), and radioactivity was measured using a Beckman liquid scintillation counter (Model LS 60001C; Beckman Instruments, Inc., Fullerton, Calif.).

N-linked glycans on gp64 = conditions: baculovirus-infected lepidopteran cells (Jarvis and Garcia, 1994); cited from earlier work
Sf9 α-mannosidase II = molecular target: T2, Sf9 α-mannosidase II (Spodoptera frugiperda, UniProt O18497); test: α-mannosidase activity assay with p-nitrophenyl α-D-mannopyranoside on extracts of recombinant baculovirus-infected Sf9 cells; type: biochemical; conditions: various concentrations of swainsonine; extracts 24, 36, 48 h postinfection (FIG. 7B)
T2 construct: The assembled full-length open reading frame of the Sf9 α-mannosidase II cDNA; made in house; host or cells: Sf9 cells infected with recombinant baculovirus (pVL1392 transfer vector, polyhedrin promoter); Triton X-100 cell extract, not purified
T2 sequence (O18497 1-1130): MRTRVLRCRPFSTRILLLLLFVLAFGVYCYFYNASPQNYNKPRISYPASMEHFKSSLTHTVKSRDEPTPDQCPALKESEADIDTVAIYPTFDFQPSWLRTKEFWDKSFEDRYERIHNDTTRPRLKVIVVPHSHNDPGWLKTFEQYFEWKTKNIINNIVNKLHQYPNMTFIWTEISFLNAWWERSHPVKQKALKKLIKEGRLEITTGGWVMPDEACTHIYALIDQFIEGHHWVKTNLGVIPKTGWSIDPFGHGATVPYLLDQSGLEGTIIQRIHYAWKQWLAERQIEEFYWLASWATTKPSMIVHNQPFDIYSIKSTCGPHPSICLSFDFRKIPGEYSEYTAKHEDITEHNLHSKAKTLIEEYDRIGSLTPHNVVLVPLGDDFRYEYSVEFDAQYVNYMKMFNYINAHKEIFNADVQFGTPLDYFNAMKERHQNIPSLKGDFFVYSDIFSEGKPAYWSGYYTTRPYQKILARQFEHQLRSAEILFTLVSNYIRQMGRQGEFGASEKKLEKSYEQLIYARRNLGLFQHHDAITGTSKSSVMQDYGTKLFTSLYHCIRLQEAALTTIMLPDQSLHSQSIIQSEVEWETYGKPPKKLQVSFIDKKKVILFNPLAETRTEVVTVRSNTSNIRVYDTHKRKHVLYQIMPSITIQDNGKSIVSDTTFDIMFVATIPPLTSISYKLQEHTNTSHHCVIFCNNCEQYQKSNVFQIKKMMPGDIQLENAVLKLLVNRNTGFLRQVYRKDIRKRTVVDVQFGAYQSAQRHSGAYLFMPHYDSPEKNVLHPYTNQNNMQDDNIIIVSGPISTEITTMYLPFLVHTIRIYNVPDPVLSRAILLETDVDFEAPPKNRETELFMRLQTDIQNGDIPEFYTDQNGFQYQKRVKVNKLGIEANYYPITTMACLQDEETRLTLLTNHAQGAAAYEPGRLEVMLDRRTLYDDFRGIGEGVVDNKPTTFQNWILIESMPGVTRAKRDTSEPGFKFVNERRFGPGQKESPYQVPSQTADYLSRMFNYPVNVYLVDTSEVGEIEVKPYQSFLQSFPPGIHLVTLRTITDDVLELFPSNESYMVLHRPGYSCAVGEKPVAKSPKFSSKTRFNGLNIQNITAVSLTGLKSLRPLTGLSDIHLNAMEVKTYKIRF
Procedure: Sf9 cells were infected with wild-type or recombinant baculoviruses were harvested by centrifugation at various times after infection, and pellets containing 1×10^6 cells were resuspended in 100 μl of assay buffer (0.1 M MES, pH 6.3; 0.5% Triton-X-100). The cell suspensions were assayed for o-mannosidase activity by mixing 25 μl of the cell extracts with 25 μl of 10 mM p-nitrophenyl α-D-mannopyranoside in the presence or absence of various concentrations of swainsonine. The reaction mixtures were incubated in a microtiter plate for 1 hr at 37° C. with gentle agitation, then quenched by the addition of 200 μl of stop solution (133 mM glycine, 67 mM NaCl, 83 mM Na2CO3). Absorbance was measured at 410 nm on a plate reader (Dynatech Model MR 5000), corrected for light scattering at 570 nm, and the corrected absorbance values were converted to nmol p-nitrophenol using a standard curve produced on the same plate reader.

SMILES: OC[C@H]1NC[C@@H](O)[C@@H](O)[C@@H]1O [dMNJ, 1-deoxymannojirimycin]
- α-mannosidase activity in recombinant baculovirus-infected cells, inhibition by dMNJ (Sf9 α1,2-mannosidase): strongly inhibited
- α-mannosidase activity in recombinant baculovirus-infected cells, inhibition by dMNJ (Sf9 α1,2-mannosidase; listed as 1-deoxymannojirimycin): inhibited
- processing of N-linked glycans on gp64 (N-linked glycans on gp64): block the processing

SMILES: O=C(O)CN(CCN(CC(=O)O)CC(=O)O)CC(=O)O [EDTA]
- α-mannosidase activity in recombinant baculovirus-infected cells, inhibition by EDTA (Sf9 α1,2-mannosidase; 10 mM EDTA, reversed by calcium, not magnesium): strongly inhibited

SMILES: O[C@H]1[C@H]2[C@H](O)CCCN2C[C@H]1O [swainsonine]
- α-mannosidase activity in recombinant baculovirus-infected cell extracts in the presence of swainsonine (Sf9 α-mannosidase II): sensitive
